According to US20240082191A1, “TOPICAL F[…] PHOSPHOLIPID COMPOUNDS” (EGIS GYÓGYSZERGYÁR ZRT., priority 2021, published 2024):

Experiments:
[1] = tested on: rats with CCI of sciatic nerve; assay: Rat model of neuropathy: chronic constriction injury (CCI), paw withdrawal threshold with electronic von Frey device; format: in vivo; conditions: 16.66 mg/kg
Excerpt: Furthermore, based on the article Bennett G J, at al (Pain, A peripheral mononeuropathy in rat that produces disorders of pain sensation like those seen in man. 1988 April; 33(1):87-107) we have developed a method for the examination of the compositions of the present invention. Thus, we have examined the compositions according to the present invention also with a different model for measuring the alleviation of the peripheral neuropathic pain also. Namely, we have carried out examinations on rats using Chronic constriction injury (CCI) model. Three weeks following nerve injury rats were assessed for hind paw mechanical withdrawal thresholds. The paw withdrawal threshold (PWT) was determined with an Electronic von Frey device according to the modified up-down method of Dixon (Efficient analysis of experimental observations, Annu Rev Pharmacol Toxicol. 1980; 20:441-62). […] The method and results are shown in example 3 and on FIG. 9. […]
Briefly, under isoflurane anesthesia small blunt dissection was made into the skin of rat right thigh then three loosely constrictive ligatures were placed around common sciatic nerve (chronic constriction injury CCI). Three weeks following nerve injury rats were assessed for hind paw mechanical withdrawal thresholds. […]

mice, allodynia = conditions: 2.5% aqueous solution, topical; cited from earlier work
human patient = conditions: 2.5% aqueous solution, topical; cited from earlier work
[2] = Pharmacokinetic studies of pregabalin (blood levels), oral and topical

SMILES: CC(C)C[C@H](CN)CC(=O)O [pregabalin]
- Reduction of hypersensitivity after oral administration [1]: not able to reduce hypersensitivity
- Time of maximum allodynia alleviating effect (mice, allodynia): 1 h
- Duration of reduction of neuropathic pain in a human patient (human patient): 6 h
- Blood levels after oral administration ([2]; oral, 16.66 mg/kg): relatively high blood levels
- Amount of pregabalin entering the bloodstream during topical treatment ([2]; topical treatment): very small amounts
